Experimental data from PubChem BioAssay (NCI).
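Briefly, cells in 96-well plates were exposed to five compound concentrations for 48 h, and endpoints were estimated by linear interpolation. At the TGI there is no net growth.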

Legend:
Experiment in all cases: growth of human tumour cells (NCI), 48 h
[1] = system: SNB-19 CNS
[2] = system: OVCAR-3 ovarian
[3] = system: A498 renal
[4] = system: UACC-257 melanoma
[5] = system: RPMI-8226 leukemia
[6] = system: SK-OV-3 ovarian
[7] = system: HCT-116 colon
[8] = system: ACHN renal
[9] = system: TK-10 renal
[10] = system: RXF 393 renal
[11] = system: LOX IMVI melanoma
[12] = system: MDA-MB-435
[13] = system: NCI-H460 lung
[14] = system: MCF7 breast
[15] = system: MOLT-4 leukemia
[16] = system: DU-145 prostate
[17] = system: NCI-H522 lung
[18] = system: SW-620 colon
[19] = system: CCRF-CEM leukemia

| Structure (SMILES) | TGI [1] | TGI [2] | TGI [3] | TGI [4] | TGI [5] | TGI [6] | TGI [7] | TGI [8] | TGI [9] | TGI [10] | TGI [11] | TGI [12] | TGI [13] | TGI [14] | TGI [15] | TGI [16] | TGI [17] | TGI [18] | TGI [19] |
| --- | --- | --- | --- | --- | --- | --- | --- | --- | --- | --- | --- | --- | --- | --- | --- | --- | --- | --- | --- |
| COc1ccc(C(=O)c2ccc(-n3c4ccccc4c4ccc5c(c43)C(=O)C=CC5=O)cc2)cc1 | 11 µM | 2.68 µM | 5.09 µM | 7.05 µM | > 100 µM | 27.5 µM | 2.77 µM | 1.8 µM | 3.76 µM | 16 µM | 4.31 µM | 3.14 µM | 19.3 µM | 2.6 µM | > 100 µM | > 21.8 µM | 0.936 µM |  |  |
| COc1cccc(-c2cc(=O)c3cccnc3[nH]2)c1 | > 100 µM | > 100 µM | > 100 µM | > 100 µM | > 100 µM | > 100 µM | > 100 µM | > 100 µM | > 100 µM | > 100 µM | > 100 µM | 0.0855 µM |  | > 100 µM | > 100 µM | > 100 µM | > 100 µM | > 100 µM | > 100 µM |
| O=C1N[C@@H]2c3c(Br)sc(Br)c3C(=O)[C@@H]2N1 | 26.2 µM | 6.72 µM | 34 µM | 8.19 µM | 18.5 µM | 27.1 µM | 3.88 µM | 14.1 µM | 6.09 µM | 14.3 µM | 4.28 µM | 4.83 µM | 18.3 µM | 10.1 µM | 9.08 µM | 17.2 µM | 11.2 µM | 4.33 µM | 3.29 µM |
| O=C(NNC(=O)c1ccccc1Cl)c1ccccc1O | > 100 µM | > 100 µM | > 100 µM | > 100 µM | > 100 µM | > 100 µM | > 100 µM |  | > 100 µM | > 100 µM | > 100 µM | > 100 µM | > 100 µM | > 100 µM | > 100 µM | > 100 µM | 99.2 µM | > 100 µM | > 100 µM |
| COc1nc2c(c(=O)n1C)NC(C(O)C(O)CO)C=N2 (configuration not stated) | > 10 µM | > 10 µM | > 10 µM | > 10 µM | > 10 µM | > 10 µM | > 10 µM | > 10 µM | > 10 µM | > 10 µM | > 10 µM | > 10 µM | > 10 µM | > 10 µM | > 10 µM | > 10 µM | > 10 µM | > 10 µM | > 10 µM |
| CCOC(=O)CC(N1CC1)N1CC1 | > 10 µM | > 10 µM | > 10 µM | > 10 µM | > 10 µM | > 10 µM | > 10 µM | > 10 µM | > 10 µM | > 10 µM | > 10 µM | > 10 µM | > 10 µM | > 10 µM | > 10 µM | > 10 µM | > 10 µM | > 10 µM | > 10 µM |
| CC(OCc1ccccc1)C(NC(=O)C1CSSCC(NC(=O)C(Cc2ccccc2)NC(=O)OCc2ccccc2)C(=O)NC(Cc2ccccc2)C(=O)NC(Cc2cn(C=O)c3ccccc23)C(=O)NC(CCCCNC(=O)OCc2ccccc2)C(=O)NC(C(C)OCc2ccccc2)C(=O)N1)C(N)=O (configuration not stated) | > 100 µM | 34 µM | 63.5 µM | > 93 µM | 53.3 µM | > 100 µM | 98.7 µM | > 100 µM | > 84.8 µM | > 100 µM | 47 µM | > 100 µM | > 61.8 µM | 41.1 µM | > 37.9 µM | > 100 µM | 38.5 µM | > 54.5 µM | > 100 µM |
| Oc1[nH]c2ccccc2c1N=NC(=S)N1CCCC1 | > 43.8 µM | 17 µM | 19.2 µM | 29.6 µM | 9.64 µM | 21.6 µM | 21.5 µM | 4.55 µM | 36.2 µM | 3.55 µM | 18.3 µM | 29.5 µM | 9.42 µM | > 56.6 µM | 5.75 µM | > 100 µM | 38.9 µM | 52.7 µM | 6.78 µM |
| O=c1c2ncn(CCCl)c2n(-c2ccccc2)c(=S)n1-c1ccccc1 | > 100 µM | > 100 µM | > 100 µM | > 100 µM | > 100 µM | > 100 µM | > 100 µM | > 100 µM | > 100 µM | > 100 µM | > 100 µM | > 100 µM | > 100 µM | > 100 µM | > 100 µM | > 100 µM | > 100 µM | > 100 µM | > 100 µM |
| CC(=O)NNc1nc(C)c(C(/C=C/c2ccc(NC(C)=O)cc2)=N/NS(=O)(=O)c2ccc(C)cc2)s1 | > 100 µM | > 100 µM | > 100 µM | > 100 µM | > 100 µM | > 100 µM | > 100 µM | > 100 µM | > 100 µM | > 100 µM | > 100 µM | > 100 µM | > 100 µM | > 100 µM | > 100 µM | > 100 µM | > 100 µM | > 100 µM | > 100 µM |
| N#CC(c1ccccc1)N(CCc1ccccc1)C(=O)Oc1ccccc1 (configuration not stated) | > 100 µM | > 100 µM | > 100 µM | > 100 µM | > 100 µM | > 100 µM | > 100 µM | > 100 µM | > 100 µM | > 100 µM | > 100 µM | > 100 µM |  | > 100 µM | > 100 µM | > 100 µM | > 100 µM | > 100 µM | > 100 µM |
| O=C(NC/C(Cl)=C/Cl)Nc1cccc2c1CCCC2 | > 100 µM | > 100 µM | > 100 µM | > 100 µM | > 100 µM | > 100 µM | > 100 µM | > 100 µM | > 100 µM | > 100 µM | > 100 µM | > 100 µM | > 100 µM | > 100 µM | > 100 µM | > 100 µM | > 100 µM | > 100 µM |  |
